Test results as given in US20190343908A1, “Therapeutic Combination for the Treatment of Cancer” (Nerium Biotechnology Inc., priority 2011, published 2019).

Columns and labels:
[1] = system: PANC-1 pancreatic cancer cell line; experiment: Sulforhodamine B viability assay, PANC-1; format: cell-based, human; parameters: key to Average SRB: absorbance (optical density) at 570 nm, second wavelength subtracted; conditions: for ABSORBANCE: 0.1 μg/mL cisplatin; for SRB 24 h / SRB 48 h / SRB 72 h: Run 1 average
Source text: (§1) Three different viability assays were chosen to complement each other and yielded results dependent on concentration and cell line: the Methyl Tetrazolium dye assay, the Sulforhodamine B fluorescent dye assay, and the Crystal Violet dye assay.
The Sulforhodamine B and Crystal Violet assays provide information about protein and were used to complement the Methyl-Tetrazolium dye assay. […] It is used for the quantification of cellular proteins of cultured cells. The assay using Crystal Violet, a dye that binds electrostatically to proteins and stains DNA, provides a reliable, simple assay for measuring viability of cells. […]
(§2) Cells were detached by trypsinization (Trypsin-0.25% EDTA, Invitrogen, 25200-072) during the logarithmic phase of culture growth and plated in 96-well plates (18.000 cells/well) (Corning, Costar 359) in a final volume of 200 μl of medium per well. […] The absorbance was measured after 24 hours, 48 hours, and 72 hours of incubation.
For the Sulforhodamine B assay, 96-well plates were fixed by 10% trichloroacetic acid (Fluka, 91228) and were incubated at 4° C. for 1 hour. Afterwards, plates were rinsed with water and cells were stained with 0.4% Sulforhodamine B (Sigma, 341738), dissolved in 1% acetic acid (Carlo Ebra, 401422) for 15 minutes at room temperature (RT). The unbound stain was washed twice with 1% acetic acid. Finally, 10 mM Tris Buffer pH 10.5 (Sigma, T6791) was added to dissolve the dye.
(§3) The optical density of each plate was measured on a μQuant spectrophotometer and the data were analyzed with Gen5 software (μQuant Biomolecular Spectrophotometer MQX200 and Gen5™ Microplate Data Collection & Analysis software, BioTek® Instruments. Inc, April 2008). Absorbance was measured at 570 nm for all assays and a second wavelength was measured in order to subtract noise. For the Methyl-Tetrazolium assay this second wavelength was 630 nm and for the Sulforhodamine B and Crystal Violet assays it was 690 nm.

[2] = system: HCT-116 (colorectal cancer); experiment: Crystal Violet viability assay, HCT-116; format: cell-based, human; parameters: key: absorbance at 570 nm (crystal violet), background wavelength subtracted; conditions: for Average CVE: HCT-116
Source text: as §1
The Sulforhodamine B and Crystal Violet assays provide information about protein and were used to complement the Methyl-Tetrazolium dye assay. […] It is used for the quantification of cellular proteins of cultured cells. The assay using Crystal Violet, a dye that binds electrostatically to proteins and stains DNA, provides a reliable, simple assay for measuring viability of cells.
The Methyl Tetrazolium, Sulforhodamine B, and Crystal Violet assays were used to assess cell viabilities. The incubation times were 24 hours, 48 hours, and 72 hours. The Nerium oleander extract Anvirzel™ (a hot water extract of oleander obtained from Salud Integral, Honduras) was tested in concentrations ranging from 0.01 ng/mL to 10 ng/mL.
as §2
For the Crystal Violet assay, the medium was removed from the 96-well plates, the plates rinsed with PBS (Sigma, P3813) and then the cells were […] by the addition of 10% formalin (MERCK, 1.04003.2500) for 20 minutes at RT. Formalin was removed and 0.25% aqueous crystal violet (Sigma, HT901), dissolved in water, was added for 10 minutes at RT. Unbound Crystal Violet was rinsed by washing with water and finally 33% acetic acid was added to dissolve the dye.
as §3

SMILES: N.N.[Cl][Pt][Cl] [cisplatin]
- ABSORBANCE ([1]; PANC-1, 48 h): 1.861
- ABSORBANCE ([1]; PANC-1, 72 h): 2.536
- Average SRB ([1]; PANC-1, Run 2, 24 h, 0.1 μg/ml CDDP): 1.924
- Average SRB ([1]; PANC-1, Run 2, 24 h, 1 μg/ml CDDP): 2.391
- Average SRB ([1]; PANC-1, Run 2, 24 h, 10 μg/ml CDDP): 2.075
- Average SRB ([1]; PANC-1, Run 2, 24 h, 100 μg/ml CDDP): 1.821
- Average SRB ([1]; PANC-1, Run 2, 48 h, 0.1 μg/ml CDDP): 1.505
- Average SRB ([1]; PANC-1, Run 2, 48 h, 1 μg/ml CDDP): 1.549
- Average SRB ([1]; PANC-1, Run 2, 48 h, 10 μg/ml CDDP): 1.106
- Average SRB ([1]; PANC-1, Run 2, 48 h, 100 μg/ml CDDP): 0.752
- Average SRB ([1]; PANC-1, Run 2, 72 h, 0.1 μg/ml CDDP): 2.471
- Average SRB ([1]; PANC-1, Run 2, 72 h, 1 μg/ml CDDP): 2.171
- Average SRB ([1]; PANC-1, Run 2, 72 h, 10 μg/ml CDDP): 1.815
- Average SRB ([1]; PANC-1, Run 2, 72 h, 100 μg/ml CDDP): 1.374
- Average SRB ([1]; PANC-1, Run 3, 24 h, 0.1 μg/ml CDDP): 1.881
- Average SRB ([1]; PANC-1, Run 3, 24 h, 1 μg/ml CDDP): 2.008
- Average SRB ([1]; PANC-1, Run 3, 24 h, 10 μg/ml CDDP): 1.74
- Average SRB ([1]; PANC-1, Run 3, 24 h, 100 μg/ml CDDP): 2.087
- Average SRB ([1]; PANC-1, Run 3, 48 h, 0.1 μg/ml CDDP): 1.861
- Average SRB ([1]; PANC-1, Run 3, 48 h, 1 μg/ml CDDP): 1.165
- Average SRB ([1]; PANC-1, Run 3, 48 h, 10 μg/ml CDDP): 0.954
- Average SRB ([1]; PANC-1, Run 3, 48 h, 100 μg/ml CDDP): 0.858
- Average SRB ([1]; PANC-1, Run 3, 72 h, 0.1 μg/ml CDDP): 2.536
- Average SRB ([1]; PANC-1, Run 3, 72 h, 1 μg/ml CDDP): 2.281
- Average SRB ([1]; PANC-1, Run 3, 72 h, 10 μg/ml CDDP): 2.07
- Average SRB ([1]; PANC-1, Run 3, 72 h, 100 μg/ml CDDP): 1.584
- SRB 24 h ([1]; 0.1 μg/ml CDDP): 1.369
- SRB 48 h ([1]; 0.1 μg/ml CDDP): 2.223
- SRB 72 h ([1]; 0.1 μg/ml CDDP): 2.191
- SRB 24 h ([1]; 1 μg/ml CDDP): 1.748
- SRB 48 h ([1]; 1 μg/ml CDDP): 1.748
- SRB 72 h ([1]; 1 μg/ml CDDP): 1.47
- SRB 24 h ([1]; 10 μg/ml CDDP): 1.597
- SRB 48 h ([1]; 10 μg/ml CDDP): 1.339
- SRB 72 h ([1]; 10 μg/ml CDDP): 1.435
- SRB 24 h ([1]; 100 μg/ml CDDP): 1.993
- SRB 48 h ([1]; 100 μg/ml CDDP): 1.53
- SRB 72 h ([1]; 100 μg/ml CDDP): 1.433
- CVE Average ([2]; HCT-116, Run 3, 24 h, 0.1 μg/ml CDDP): 0.371
- CVE Average ([2]; HCT-116, Run 3, 24 h, 1 μg/ml CDDP): 0.267
- CVE Average ([2]; HCT-116, Run 3, 24 h, 10 μg/ml CDDP): 0.393
- CVE Average ([2]; HCT-116, Run 3, 24 h, 100 μg/ml CDDP): 0.256
- CVE Average ([2]; HCT-116, Run 3, 48 h, 0.1 μg/ml CDDP): 1.153
- CVE Average ([2]; HCT-116, Run 3, 48 h, 1 μg/ml CDDP): 0.687
- CVE Average ([2]; HCT-116, Run 3, 48 h, 10 μg/ml CDDP): 0.993
- CVE Average ([2]; HCT-116, Run 3, 48 h, 100 μg/ml CDDP): 0.359
- CVE Average ([2]; HCT-116, Run 3, 72 h, 0.1 μg/ml CDDP): 1.078
- CVE Average ([2]; HCT-116, Run 3, 72 h, 1 μg/ml CDDP): 0.235
- CVE Average ([2]; HCT-116, Run 3, 72 h, 10 μg/ml CDDP): 0.476
- CVE Average ([2]; HCT-116, Run 3, 72 h, 100 μg/ml CDDP): 0.214
- Average CVE ([2]; Run 1, 24 h, 0.1 μg/ml CDDP): 0.569
- Average CVE ([2]; Run 1, 24 h, 1 μg/ml CDDP): 0.563
- Average CVE ([2]; Run 1, 24 h, 10 μg/ml CDDP): 1.173
- Average CVE ([2]; Run 1, 24 h, 100 μg/ml CDDP): 0.344
- Average CVE ([2]; Run 1, 48 h, 0.1 μg/ml CDDP): 0.984
- Average CVE ([2]; Run 1, 48 h, 1 μg/ml CDDP): 0.624
- Average CVE ([2]; Run 1, 48 h, 10 μg/ml CDDP): 0.488
- Average CVE ([2]; Run 1, 48 h, 100 μg/ml CDDP): 0.356
- Average CVE ([2]; Run 1, 72 h, 0.1 μg/ml CDDP): 1.352
- Average CVE ([2]; Run 1, 72 h, 1 μg/ml CDDP): 0.308
- Average CVE ([2]; Run 1, 72 h, 10 μg/ml CDDP): 0.501
- Average CVE ([2]; Run 1, 72 h, 100 μg/ml CDDP): 0.51
- Average CVE ([2]; Run 2, 24 h, 0.1 μg/ml CDDP): 0.52
- Average CVE ([2]; Run 2, 24 h, 1 μg/ml CDDP): 0.302
- Average CVE ([2]; Run 2, 24 h, 10 μg/ml CDDP): 0.477
- Average CVE ([2]; Run 2, 24 h, 100 μg/ml CDDP): 0.303
- Average CVE ([2]; Run 2, 48 h, 0.1 μg/ml CDDP): 0.971
- Average CVE ([2]; Run 2, 48 h, 1 μg/ml CDDP): 0.425
- Average CVE ([2]; Run 2, 48 h, 10 μg/ml CDDP): 0.608
- Average CVE ([2]; Run 2, 48 h, 100 μg/ml CDDP): 0.529
- Average CVE ([2]; Run 2, 72 h, 0.1 μg/ml CDDP): 1.187
- Average CVE ([2]; Run 2, 72 h, 1 μg/ml CDDP): 0.551
- Average CVE ([2]; Run 2, 72 h, 10 μg/ml CDDP): 0.435
- Average CVE ([2]; Run 2, 72 h, 100 μg/ml CDDP): 0.492
